We go through 3 compounds from PMC8284461, “Piperidine-4-Carboxamides Target DNA Gyrase in Mycobacterium abscessus” (Antimicrobial Agents and Chemotherapy, 2021).

In brackets after ≈: the same amount, converted by molar mass.

Assay [1] has as its system M. abscessus subsp. abscessus ATCC 19977 MXF^r-2 (GyrA D96N). Nature of the assay: MIC, resistant mutant. The assay is classed as cell-based, Mycobacterium abscessus. Conditions: Mycobacteroides abscessus, ATCC19977.
The subject of assay [2] is M. abscessus subsp. bolletii CCUG 50184T. The assay is described as follows: MIC, broth microdilution. It counts as cell-based, Mycobacterium abscessus. Conditions: Mycobacteroides abscessus, 72 h, 90% growth inhibition, 3 days. The protocol: (§1) MIC was determined using the broth microdilution method in 96-well plates as described previously ([47]). Briefly, a 10-point 2-fold serial dilution of compounds was performed in 96-well plates (Costar 3370; Corning, USA) starting at twice the desired highest concentration. […] One hundred microliters of the bacterial suspension was seeded onto the 96-well plates containing 100 μl of the serially diluted compounds to give a final volume of 200 μl in each well with the final OD600 of 0.005. The plates were sealed with parafilm, placed onto wet paper towels in a lock-lock box and incubated for 3 days at 37°C with orbital shaking at 90 rpm. […] Absorbance values at day 3 were subtracted from the day 0 readout. Percent growth inhibition was calculated by dividing the absolute absorbance value of treated cells with untreated control and multiplying by 100. CLR was included in all MIC experiments as a positive control to monitor assay reproducibility. MIC was defined as 90% of growth inhibition relative to untreated controls.
For orientation: In broth dilution the organism is exposed to a series of concentrations in liquid medium.

Assay [3] relates to M. abscessus subsp. abscessus M404. The assay is described as follows: MIC, broth microdilution. It counts as cell-based, Mycobacterium abscessus. Conditions: Mycobacteroides abscessus, 72 h, 90% growth inhibition, 3 days. As to the method:
as §1

Assay [4] relates to M. abscessus subsp. massiliense M111. Nature of the assay: MIC, broth microdilution. It counts as cell-based, Mycobacterium abscessus. Conditions: Mycobacteroides abscessus, 72 h, 90% growth inhibition, 3 days. As to the method: as §1
Assay [5] has as its system M. abscessus subsp. abscessus M337. The assay is described as follows: MIC, broth microdilution. It counts as cell-based, Mycobacterium abscessus. Conditions: Mycobacteroides abscessus, 72 h, 90% growth inhibition, 3 days. The protocol:
as §1

The subject of assay [6] is M. abscessus subsp. abscessus M199. Nature of the assay: MIC, broth microdilution. The assay is classed as cell-based, Mycobacterium abscessus. Conditions: Mycobacteroides abscessus, 72 h, 90% growth inhibition, 3 days. The protocol: as §1
The subject of assay [7] is M. abscessus subsp. massiliense CCUG 48898T. Nature of the assay: MIC, broth microdilution. The assay is classed as cell-based, Mycobacterium abscessus. Conditions: Mycobacteroides abscessus, 72 h, 90% growth inhibition, 3 days. As to the method:
as §1

The subject of assay [8] is M. abscessus subsp. abscessus ATCC 19977. The assay is described as follows: MIC, broth microdilution. The assay is classed as cell-based, Mycobacterium abscessus. Conditions: abscessus ATCC 19977 wild type, 90% growth inhibition, 3 days. As to the method:
as §1

For assay [9], the system named is M. abscessus subsp. abscessus M9. The assay is described as follows: MIC, broth microdilution. The assay is classed as cell-based, Mycobacterium abscessus. Conditions: Mycobacteroides abscessus, 72 h, 90% growth inhibition, 3 days. As to the method:
as §1

Assay [10] relates to M. abscessus subsp. bolletii M506. Nature of the assay: MIC, broth microdilution. It counts as cell-based, Mycobacterium abscessus. Conditions: Mycobacteroides abscessus, 72 h, 90% growth inhibition, 3 days. As to the method:
as §1

Assay [11] concerns M. abscessus subsp. abscessus M421. Nature of the assay: MIC, broth microdilution. It counts as cell-based, Mycobacterium abscessus. Conditions: Mycobacteroides abscessus, 72 h, 90% growth inhibition, 3 days. The protocol:
as §1

Assay [12] deals with M. abscessus subsp. abscessus Bamboo. Nature of the assay: MIC, broth microdilution. The assay is classed as cell-based, Mycobacterium abscessus. Conditions: abscessus Bamboo wild type, 90% growth inhibition, 3 days. The protocol: as §1
In assay [13] the test system is M. abscessus subsp. bolletii M232. Nature of the assay: MIC, broth microdilution. It counts as cell-based, Mycobacterium abscessus. Conditions: Mycobacteroides abscessus, 72 h, 90% growth inhibition, 3 days. The protocol: as §1
Assay [14] relates to M. abscessus subsp. abscessus K21. The assay is described as follows: MIC, broth microdilution. It counts as cell-based, Mycobacterium abscessus. Conditions: Mycobacteroides abscessus, 72 h, 90% growth inhibition, 3 days. The protocol: as §1
Assay [15] relates to M. abscessus subsp. abscessus Bamboo. The assay is described as follows: Selection and characterization of spontaneous resistant mutants. It counts as cell-based, Mycobacterium abscessus. Conditions: agar with 8× MIC.
Assay [16] deals with M. abscessus subsp. abscessus ATCC 19977 MXF^r-1 (GyrA D96Y). Nature of the assay: MIC, resistant mutant. The assay is classed as cell-based, Mycobacterium abscessus. Conditions: Mycobacteroides abscessus, ATCC19977.
In assay [17] the test system is M. abscessus complex strains. Nature of the assay: MIC across reference strains and clinical isolates. The assay is classed as cell-based, Mycobacterium abscessus. Conditions: Mycobacteroides abscessus; reference strains and clinical isolates of Table 1; read-out: MICs ranging across the M. abscessus complex strains. As to the method: as §1
Assay [18] addresses GyrA D91N mutant recombinant M. abscessus DNA gyrase (Mycobacteroides abscessus, UniProt B1ME45+B1ME58, D91N). The assay is classed as biochemical, Mycobacterium abscessus.
For assay [19], the system named is M. abscessus subsp. abscessus ATCC 19977 biofilm. The assay is described as follows: Antibiofilm activity, MBEC biofilm assay. Conditions: 1×, 4×, 8× MIC; surface-attached CFU after 2 and 3 days. It counts as cell-based, Mycobacterium abscessus. The protocol:
The antibiofilm activity of 844 and 844-TMF was determined employing the MBEC 96-well Biofilm assay kit (19111; Innovotech, Edmonton, AB, Canada) as described previously ([15]) with minor modifications. Briefly, exponentially growing M. abscessus subsp. abscessus ATCC 19977 cultures were spun down at 3,200 × g for 10 min and washed with 7H9 broth without Tween 80 (‘7H9’). Bacteria were resuspended in ‘7H9’ to an OD600 of 0.0125, and 150 μl was dispensed into the wells of Innovotech 96-well plates. Pegs (protruding from the specialized lids of the Innovotech multiwell plates) were inserted into the bacterial suspensions in the wells, and the cultures were grown 24 h with shaking at 110 rpm at 37°C to allow attachment and growth of the bacteria on the surface of the pegs. […] Biofilm growth on the pegs was measured by CFU determination. The pegs were washed in 200 μl ‘7H9’ medium, removed, and placed in 1.7-ml microcentrifuge tubes (87003-294; VWR, Radnor, PA, USA) containing 500 μl PBS/Tween 80 (0.025%). The tubes were vortexed at 2,000 rpm for 90 s to detach and suspend the bacteria from the pegs before samples were serially diluted and plated onto 7H10 agar supplemented with 0.4% activated charcoal to determine CFU/peg.

Assay [20] deals with M. abscessus subsp. abscessus ATCC 19977 MXF^r-3 (GyrA D96G). Nature of the assay: MIC, resistant mutant. It counts as cell-based, Mycobacterium abscessus. Conditions: Mycobacteroides abscessus, ATCC19977.
For assay [21], the target named is recombinant M. abscessus wild-type DNA gyrase (Mycobacteroides abscessus, UniProt B1ME45+B1ME58). The assay is described as follows: biochemical. On the set-up: species or system Mycobacterium abscessus. Conditions: wild-type DNA gyrase; for IC50: relaxed pBR322 substrate, read-out: IC50, supercoiling activity.
Assay [22] concerns M. abscessus subsp. abscessus Bamboo 844^r-2 (GyrA D91N). The assay is described as follows: MIC, resistant mutant. Conditions: Mycobacteroides abscessus. It counts as cell-based, Mycobacterium abscessus.
Assay [23] has as its system M. abscessus subsp. abscessus ATCC 19977. Nature of the assay: Time-concentration kill assay, planktonic cultures. Conditions: 1×, 4×, 8× MIC; CFU after 2 and 3 days. The assay is classed as cell-based, Mycobacterium abscessus.
Protocol: At 0, 2, and 3 days, tubes were vortexed, and 20 μl of the cultures was transferred to round-bottom 96-well plates containing 180 μl of phosphate-buffered saline (PBS) (10010023; Thermo Fisher, USA) with 0.025% Tween 80 (PBS/Tween 80) for 10-fold serial dilution. To prevent compound carryover effects, we plated out serially diluted samples onto 7H10 agar supplemented with 0.4% activated charcoal (C9154; Sigma-Aldrich, USA) for all time points as described ([48]). CFU were enumerated after 4 days of incubation at 37°C.
In assay [24] the test system is M. abscessus subsp. abscessus Bamboo 844^r-3 (GyrB S473W). The assay is described as follows: MIC, resistant mutant. The assay is classed as cell-based, Mycobacterium abscessus. Conditions: Mycobacteroides abscessus.
For assay [25], the system named is M. abscessus subsp. abscessus ATCC 19977 844-TMF^r-4 (GyrB M474I). The assay is described as follows: MIC, resistant mutant. It counts as cell-based, Mycobacterium abscessus. Conditions: Mycobacteroides abscessus, ATCC19977.
The subject of assay [26] is P4C-resistant M. abscessus strains. Nature of the assay: Cross-resistance, MICs for P4C-resistant strains. The assay is classed as cell-based, Mycobacterium abscessus. Conditions: P4C-resistant strains of Table 2.
[27] abbreviates: Mycobacteroides abscessus, ATCC19977, 72 h.
Setting [28] is: Mycobacteroides abscessus, 72 h.

Chain of recombinant M. abscessus wild-type DNA gyrase (B1ME58 entry or part of it): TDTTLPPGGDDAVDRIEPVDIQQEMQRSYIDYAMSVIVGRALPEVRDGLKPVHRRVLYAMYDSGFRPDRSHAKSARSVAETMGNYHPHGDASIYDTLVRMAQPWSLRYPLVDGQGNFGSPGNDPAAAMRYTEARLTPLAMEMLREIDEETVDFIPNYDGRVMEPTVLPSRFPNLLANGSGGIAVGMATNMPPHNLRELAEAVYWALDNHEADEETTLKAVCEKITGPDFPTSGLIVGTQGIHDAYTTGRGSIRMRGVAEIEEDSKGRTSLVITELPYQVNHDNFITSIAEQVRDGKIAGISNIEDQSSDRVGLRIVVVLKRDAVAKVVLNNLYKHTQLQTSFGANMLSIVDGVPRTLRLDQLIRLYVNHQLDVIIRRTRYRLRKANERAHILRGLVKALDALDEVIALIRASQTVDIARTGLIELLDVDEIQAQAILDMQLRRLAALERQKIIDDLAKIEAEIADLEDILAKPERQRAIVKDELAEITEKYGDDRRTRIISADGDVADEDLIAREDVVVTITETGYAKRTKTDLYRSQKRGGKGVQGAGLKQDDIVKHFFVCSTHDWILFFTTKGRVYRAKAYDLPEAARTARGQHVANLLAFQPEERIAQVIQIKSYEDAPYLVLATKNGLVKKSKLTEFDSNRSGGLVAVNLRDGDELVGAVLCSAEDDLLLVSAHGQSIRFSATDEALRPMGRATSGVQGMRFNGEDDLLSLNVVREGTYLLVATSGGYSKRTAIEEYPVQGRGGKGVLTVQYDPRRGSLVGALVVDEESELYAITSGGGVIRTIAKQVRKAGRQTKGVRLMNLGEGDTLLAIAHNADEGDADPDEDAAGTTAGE
Chain of recombinant M. abscessus wild-type DNA gyrase (B1ME45 entry or part of it): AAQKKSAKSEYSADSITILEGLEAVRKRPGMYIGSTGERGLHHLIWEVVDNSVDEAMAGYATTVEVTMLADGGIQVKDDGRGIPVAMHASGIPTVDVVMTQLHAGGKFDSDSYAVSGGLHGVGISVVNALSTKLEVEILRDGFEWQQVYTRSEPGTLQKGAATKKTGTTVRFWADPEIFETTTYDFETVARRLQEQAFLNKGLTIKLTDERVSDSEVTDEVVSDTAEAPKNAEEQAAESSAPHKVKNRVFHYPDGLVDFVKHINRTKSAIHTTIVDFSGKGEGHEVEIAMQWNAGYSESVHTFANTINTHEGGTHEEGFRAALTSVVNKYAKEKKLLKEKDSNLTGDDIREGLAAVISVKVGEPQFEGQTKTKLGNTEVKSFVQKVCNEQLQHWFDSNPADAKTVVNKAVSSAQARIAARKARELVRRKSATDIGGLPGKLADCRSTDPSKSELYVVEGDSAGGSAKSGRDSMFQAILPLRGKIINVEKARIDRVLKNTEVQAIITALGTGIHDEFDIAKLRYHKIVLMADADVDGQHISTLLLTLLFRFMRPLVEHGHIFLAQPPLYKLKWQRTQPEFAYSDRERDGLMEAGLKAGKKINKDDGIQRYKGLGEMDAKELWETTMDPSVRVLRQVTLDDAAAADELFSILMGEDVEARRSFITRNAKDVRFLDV
Chain of GyrA D91N mutant recombinant M. abscessus DNA gyrase (B1ME58 2-839, stated change not applied): as the sequence (B1ME58 entry or part of it) above
Chain of GyrA D91N mutant recombinant M. abscessus DNA gyrase (B1ME45 2-675, stated change not applied): as the sequence (B1ME45 entry or part of it) above

In general, IC50 refers to the concentration that inhibits the measured activity by half. As to `COc1ccc2nccc(NC(=O)C3CCN(CCc4ccc(Cl)cc4)CC3)c2n1` [compound 844], the MIC in assay [1] turned out to be 15 µM (≈ 6.37 µg/mL); in [2], 14 µM (≈ 5.95 µg/mL); in assay [3] it was 6.3 µM (≈ 2.68 µg/mL); in assay [4], 12.5 µM (≈ 5.31 µg/mL); in assay [5] it was 6.3 µM (≈ 2.68 µg/mL); in [6], 6.3 µM (≈ 2.68 µg/mL). For the same compound, the MIC stood at 14 µM (≈ 5.95 µg/mL) in assay [7]; 8 µM (≈ 3.4 µg/mL) in [8] (setting [27]); 8 µM (≈ 3.4 µg/mL) in assay [8]; 6.3 µM (≈ 2.68 µg/mL) in [9]; 6.3 µM (≈ 2.68 µg/mL) in assay [10]; 6.3 µM (≈ 2.68 µg/mL) in [11]. Besides, the MIC was 12 µM (≈ 5.1 µg/mL) in assay [12] (setting [28]); 12 µM (≈ 5.1 µg/mL) in [12]; 6.3 µM (≈ 2.68 µg/mL) in assay [13]; 14 µM (≈ 5.95 µg/mL) in assay [14]; 40 µM (≈ 17 µg/mL) in assay [16]; 6 to 14 µM (≈ 2.55 to 5.95 µg/mL) in assay [17]. In addition, the MIC in assay [20] is 15 µM (≈ 6.37 µg/mL); in assay [22], greater than 100 µM; in assay [24] it was 90 µM (≈ 38.2 µg/mL); in assay [25] it was 40 µM (≈ 17 µg/mL). For the same compound, the “frequency of spontaneous resistance” value in assay [15] is on record as 10^−8 /CFU. The “effect on supercoiling activity” value in [18] (GyrA D91N mutant DNA gyrase, up to 50 μM) is “No inhibition”. Besides, the “bactericidal activity against M. abscessus grown as biofilm” value in [19] is “bactericidal”. Also, in [21], the IC50 was 4.6 µM. Besides, in [23], the “bactericidal activity in planktonic cultures” value is “bactericidal”.
Turning to `CCNC(=O)Nc1nc2cc(-c3cnc(C(C)(C)O)nc3)c(F)c([C@H]3CCCO3)c2[nH]1` [SPR719], the MIC in assay [1] worked out at 0.2 µM (≈ 0.0857 µg/mL); in assay [2], 1.5 µM (≈ 0.643 µg/mL); in assay [3] it was 1.5 µM (≈ 0.643 µg/mL); in assay [4], 6.3 µM (≈ 2.7 µg/mL); in assay [5], 0.8 µM (≈ 0.343 µg/mL); in assay [6], 1.5 µM (≈ 0.643 µg/mL). The MIC is 3 µM (≈ 1.29 µg/mL) in assay [7]; 0.6 µM (≈ 0.257 µg/mL) in assay [8] (setting [27]); 1.5 µM (≈ 0.643 µg/mL) in assay [9]; 1.5 µM (≈ 0.643 µg/mL) in [10]; 0.8 µM (≈ 0.343 µg/mL) in assay [11]; 0.8 µM (≈ 0.343 µg/mL) in [12] (setting [28]). The MIC in assay [13] worked out at 1.5 µM (≈ 0.643 µg/mL); in assay [14], 1.5 µM (≈ 0.643 µg/mL); in assay [16], 0.8 µM (≈ 0.343 µg/mL); in assay [20] it was 0.3 µM (≈ 0.129 µg/mL); in assay [22], 0.1 µM (≈ 0.0428 µg/mL); in [24], 0.05 µM (≈ 0.0214 µg/mL). Besides, the MIC in assay [25] was determined as 0.3 µM (≈ 0.129 µg/mL). Besides, the “cross-resistance caused by P4C resistance mutations” value in [26] was “did not cause cross-resistance”. Besides, the “IC50, supercoiling activity” value in assay [18] is given as “same IC50 as the wild-type enzyme”. For the same compound, the IC50 in [21] was found to be 2.3 µM. Also, the “effect on supercoiling activity” value in assay [21] (up to 50 μM) is reported as “inhibited supercoiling activity”.
For `COc1c(N2C[C@@H]3CCCN[C@@H]3C2)c(F)cc2c(=O)c(C(=O)O)cn(C3CC3)c12` [MXF, moxifloxacin], the MIC turned out to be 80 µM (≈ 32.1 µg/mL) in [1]; 6.3 µM (≈ 2.53 µg/mL) in assay [2]; 3 µM (≈ 1.2 µg/mL) in assay [3]; 3.2 µM (≈ 1.28 µg/mL) in assay [4]; 1.5 µM (≈ 0.602 µg/mL) in assay [5]; 2.5 µM (≈ 1 µg/mL) in [6]. Further, the MIC in [7] is 6.3 µM (≈ 2.53 µg/mL); in assay [8] (setting [27]) it was 3 µM (≈ 1.2 µg/mL); in assay [9], 1.5 µM (≈ 0.602 µg/mL); in assay [10] it was 2.5 µM (≈ 1 µg/mL); in assay [11] it was 1.5 µM (≈ 0.602 µg/mL); in assay [12] (setting [28]) it was 4 µM (≈ 1.61 µg/mL). The MIC stood at 4 µM (≈ 1.61 µg/mL) in assay [12]; 1.5 µM (≈ 0.602 µg/mL) in [13]; 3 µM (≈ 1.2 µg/mL) in [14]; 100 µM (≈ 40.1 µg/mL) in assay [16]; 80 µM (≈ 32.1 µg/mL) in assay [20]; 30 µM (≈ 12 µg/mL) in assay [22]. Besides, the MIC in [24] and in assay [25] was 2 µM (≈ 0.803 µg/mL) throughout.
